Experiments:
[1] = Molar extinction coefficient of ultraviolet absorbent in 20 mg/L toluene solution; type: physicochemical
Description: (manufactured by JASCO Corporation) Measured Concentration: 20 mg/L Solvent: toluene

[2] = Solubility of ultraviolet absorbent in N,N-dimethylacetamide at 25° C.; type: physicochemical

SMILES	Molar extinction coefficient 360 nm [1]	Molar extinction coefficient 370 nm [1]	Molar extinction coefficient 380 nm [1]	Molar extinction coefficient 390 nm [1]	Molar extinction coefficient 400 nm [1] [L/mol/cm]	Molar extinction coefficient 420 nm [1] [L/mol/cm]	Solubility at 25° C. with respect to DMAc [2] [g/100 g-DMAc]
CCC(C)(C)c1cc(-n2nc3ccccc3n2)c(O)c(C(C)(C)CC)c1 [Sumisorb 350, 2-(2-hydroxy-3,5-di-tert-pentylphenyl)benzotriazole]	13,900 L/mol · cm	9,700 L/mol · cm	4,800 L/mol · cm	1,200 L/mol · cm	210	<50	>10
CCCCC(CC)C(=O)OCCOc1ccc(-c2nc(-c3ccccc3)nc(-c3ccccc3)n2)c(O)c1 (stereo not shown) [LA46, 2-(4,6-diphenyl-1,3,5-triazine-2-yl)-5-[2-(2-ethylhexanoyloxy)ethoxy]phenol]	10000 L/mol/cm	3,000 L/mol · cm	160 L/mol/cm	<50 L/mol/cm	<30	<30	>10
CC(C)(C)CC(C)(C)c1cc(Cc2cc(C(C)(C)CC(C)(C)C)cc(-n3nc4ccccc4n3)c2O)c(O)c(-n2nc3ccccc3n2)c1 [LA31, 2,2′-methylenebis[6-(2H-benzotriazole-2-yl)-4-(1,1,3,3-tetramethylbutyl)phenol]]	27,300 L/mol · cm	19,800 L/mol · cm	9,000 L/mol · cm	1,400 L/mol · cm	<50	<50	>10
CC(C)(C)CC(C)(C)c1ccc(O)c(-n2nc3ccccc3n2)c1 [Sumisorb 340, 2-(2-hydroxy-5-tert-octylphenyl)benzotriazole]	13,100 L/mol · cm	7,700 L/mol · cm	2,200 L/mol · cm	320 L/mol/cm	<50	<50	>10

— patent US20170329062A1, “OPTICAL FILM AND FLEXIBLE DEVICE USING THE OPTICAL FILM” (SUMITOMO CHEMICAL COMPANY, LIMITED, priority 2016, published 2017)
